Test system: relapsed or refractory, rituximab-naive or -sensitive follicular B-cell NHL
Test: Time to next anti-lymphoma therapy, Vc-R vs rituximab study, by biomarker
Format: in vivo, human
Set-up: Median, Time to Next Anti-Lymphoma Therapy / Time to Next Anti-Lymphoma Therapy, Median: unit not given here
Source text: Non-Hodgkin lymphoma (NHL) encompasses several unique malignant lymphoid disease entities that vary in clinical behavior, morphologic appearance, immunologic, and molecular phenotype. […] A randomized, open-label, active-controlled, multicenter, multinational, prospective study to compare the efficacy and safety of the combination of bortezomib and rituximab (Vc-R) to single-agent rituximab in subjects who have relapsed or refractory, rituximab-naive or -sensitive follicular B-cell NHL was performed.
Subjects were centrally randomized to Treatment Groups A (Vc-R) or B (rituximab) in a 1:1 ratio taking into account the following stratification factors: • Follicular Lymphoma International Prognostic Index (FLIPI) score (low [0 or 1 factor], intermediate [2 factors], high [≧3 factors]); • Prior rituximab therapy (yes, no); • Time since last dose of anti-lymphoma therapy (≦1 year, >1 year); • Region (United States/Canada, European Union, Rest of World).
The following clinical endpoints were included in the analysis within each treatment group and an overall comparison was made with the biomarker-related endpoints: Progression-free survival, defined as the interval between the date of randomization and the date of progressive disease (PD) or death, whichever is first reported in the ITT population; overall survival; overall response rate (complete response [CR]+CR unconfirmed [CRu]+partial response [PR]); overall CR rate (CR+CRu); duration of response; time to next anti-lymphoma therapy; and treatment free interval.

[1] = CD68 POSITIVE PERIFOLLICULAR: 0-25, White, IRC Review
[2] = CD68 POSITIVE PERIFOLLICULAR: 0-25, ≦65 years old, IRC Review
[3] = CD68 POSITIVE PERIFOLLICULAR: 26-50, Other, IRC Review
[4] = CD68 POSITIVE PERIFOLLICULAR: >75, 1 Prior Line of Therapy, IRC Review
[5] = CD68 POSITIVE PERIFOLLICULAR: >75, European Union, IRC Review
[6] = CD68 POSITIVE PERIFOLLICULAR: >75, ≦65 years old, IRC Review
[7] = NOTCH/G_A1702P: MND, subgroup White, IRC review
[8] = NOTCH/I1681N: MND, subgroup White, IRC review
[9] = NOTCH/L1679P: MND, subgroup White, IRC review
[10] = NOTCH/L1679Q: MND, subgroup White, IRC review
[11] = NOTCH/L2458V: MND, subgroup White, IRC review
[12] = NOTCH/P2513L: MND, subgroup White, IRC review
[13] = NOTCH/P2515FS4: MND, subgroup White, IRC review
[14] = NOTCH/Q2441X: MND, subgroup White, IRC review
[15] = NOTCH/Q2460X: MND, subgroup White, IRC review
[16] = NOTCH/X26DEL: MND, subgroup White, IRC review
[17] = NOTCH/X26INS: MND, subgroup White, IRC review
[18] = NOTCH/X28DEL: MND, subgroup White, IRC review
[19] = NOTCH/X28INS: MND, subgroup White, IRC review
[20] = P27 % NUCLEI POSITIVE: 0-20, 1 Prior Line of Therapy, IRC Review
[21] = P27 % NUCLEI POSITIVE: 0-20, Ann Arbor Stage III, IRC Review
[22] = P27 % NUCLEI POSITIVE: 0-20, High Tumor Burden, IRC Review
[23] = P27 % NUCLEI POSITIVE: 0-20, ≦65 years old, IRC Review
[24] = P27 % NUCLEI POSITIVE: 30-50, High Tumor Burden, IRC Review
[25] = P27 % NUCLEI POSITIVE: 80-100, European Union, IRC Review
[26] = P27 SIGNAL INTENSITY: ≦1+, High Tumor Burden, IRC Review
[27] = P27 SIGNAL INTENSITY: ≧2+, 5 Prior Lines of Therapy, IRC Review
[28] = P27 SIGNAL INTENSITY: ≧2+, European Union, IRC Review
[29] = P27 SIGNAL INTENSITY: ≧2+, Prior Rituximab Therapy, IRC Review
[30] = P27 SIGNAL INTENSITY: ≧2+, White, IRC Review
[31] = P27 SIGNAL INTENSITY: ≧2+, ≦65 years old, IRC Review
[32] = P27 SIGNAL TENSITY: ≧2+, No Subgroup, IRC Review
[33] = P65 % NUCLEAR STAINING: 0, 1 Prior Line of Therapy, IRC Review
[34] = P65 % NUCLEAR STAINING: ≦5%, 2 Prior Lines of Therapy, IRC Review
[35] = P65 % NUCLEAR STAINING: ≦5%, 5 Prior Lines of Therapy, IRC Review
[36] = P65 % NUCLEAR STAINING: ≦5%, Prior Rituximab Therapy, IRC Review
[37] = P65 % NUCLEAR STAINING: ≦5%, ≦65 years old, IRC Review
[38] = P65 % POSITIVE CYTOPLASMIC SIGNAL: >90%, 1 Prior Line of Therapy, IRC Review
[39] = P65 % POSITIVE CYTOPLASMIC SIGNAL: >90%, >1 year since last anti- lymphoma treatment, IRC Review
[40] = P65 % POSITIVE CYTOPLASMIC SIGNAL: >90%, European Union, IRC Review
[41] = P65 % POSITIVE CYTOPLASMIC SIGNAL: >90%, Male, IRC Review
[42] = P65 % POSITIVE CYTOPLASMIC SIGNAL: >90%, No Subgroup, IRC Review
[43] = P65 % POSITIVE CYTOPLASMIC SIGNAL: >90%, White, IRC Review
[44] = P65 % POSITIVE CYTOPLASMIC SIGNAL: >90%, ≦65 years old, IRC Review
[45] = P65 INTENSITY CYTOPLASMIC SIGNAL: ≦1+, Ann Arbor Stage III, IRC Review
[46] = P65 INTENSITY CYTOPLASMIC SIGNAL: ≦1+, European Union, IRC Review
[47] = P65 INTENSITY CYTOPLASMIC SIGNAL: ≧2+, 1 Prior Line of Therapy, IRC Review
[48] = P65 INTENSITY CYTOPLASMIC SIGNAL: ≧2+, Female, IRC Review
[49] = P65 INTENSITY CYTOPLASMIC SIGNAL: ≧2+, White, IRC Review

rituximab
Evt/N, Time to Next Anti-Lymphoma Therapy [1]: 19/27 | Median, Time to Next Anti-Lymphoma Therapy [1]: 501 | Evt/N, Time to Next Anti-Lymphoma Therapy [2]: 20/31 | Median, Time to Next Anti-Lymphoma Therapy [2]: 332 | Evt/N, Time to Next Anti-Lymphoma Therapy [3]: 4/4 | Median, Time to Next Anti-Lymphoma Therapy [3]: 341 | Evt/N, Time to Next Anti-Lymphoma Therapy [4]: 15/18 | Median, Time to Next Anti-Lymphoma Therapy [4]: 437 | Evt/N, Time to Next Anti-Lymphoma Therapy [5]: 13/17 | Median, Time to Next Anti-Lymphoma Therapy [5]: 675 | Evt/N, Time to Next Anti-Lymphoma Therapy [6]: 19/23 | Median, Time to Next Anti-Lymphoma Therapy [6]: 437 | Evt/N, Time to Next Anti-Lymphoma Therapy [7]: 97/152 | Median, Time to Next Anti-Lymphoma Therapy [7]: 504 | Evt/N, Time to Next Anti-Lymphoma Therapy [8]: 97/152 | Median, Time to Next Anti-Lymphoma Therapy [8]: 504 | Evt/N, Time to Next Anti-Lymphoma Therapy [9]: 97/152 | Median, Time to Next Anti-Lymphoma Therapy [9]: 504 | Evt/N, Time to Next Anti-Lymphoma Therapy [10]: 97/152 | Median, Time to Next Anti-Lymphoma Therapy [10]: 504 | Evt/N, Time to Next Anti-Lymphoma Therapy [11]: 89/140 | Median, Time to Next Anti-Lymphoma Therapy [11]: 504 | Evt/N, Time to Next Anti-Lymphoma Therapy [12]: 78/122 | Median, Time to Next Anti-Lymphoma Therapy [12]: 504 | Evt/N, Time to Next Anti-Lymphoma Therapy [13]: 99/154 | Median, Time to Next Anti-Lymphoma Therapy [13]: 505 | Evt/N, Time to Next Anti-Lymphoma Therapy [14]: 88/139 | Median, Time to Next Anti-Lymphoma Therapy [14]: 501 | Evt/N, Time to Next Anti-Lymphoma Therapy [15]: 85/131 | Median, Time to Next Anti-Lymphoma Therapy [15]: 501 | Evt/N, Time to Next Anti-Lymphoma Therapy [16]: 99/155 | Median, Time to Next Anti-Lymphoma Therapy [16]: 505 | Evt/N, Time to Next Anti-Lymphoma Therapy [17]: 101/159 | Median, Time to Next Anti-Lymphoma Therapy [17]: 533 | Evt/N, Time to Next Anti-Lymphoma Therapy [18]: 111/169 | Median, Time to Next Anti-Lymphoma Therapy [18]: 504 | Evt/N, Time to Next Anti-Lymphoma Therapy [19]: 115/174 | Median, Time to Next Anti-Lymphoma Therapy [19]: 504 | Evt/N, Time to Next Anti-Lymphoma Therapy [20]: 19/26 | Median, Time to Next Anti-Lymphoma Therapy [20]: 434 | Evt/N, Time to Next Anti-Lymphoma Therapy [21]: 14/16 | Median, Time to Next Anti-Lymphoma Therapy [21]: 418 | Evt/N, Time to Next Anti-Lymphoma Therapy [22]: 23/27 | Median, Time to Next Anti-Lymphoma Therapy [22]: 220 | Evt/N, Time to Next Anti-Lymphoma Therapy [23]: 26/34 | Median, Time to Next Anti-Lymphoma Therapy [23]: 327 | Evt/N, Time to Next Anti-Lymphoma Therapy [24]: 17/22 | Median, Time to Next Anti-Lymphoma Therapy [24]: 421 | Evt/N, Time to Next Anti-Lymphoma Therapy (P27 % NUCLEI POSITIVE: 60-70, 3 Prior Lines of Therapy, IRC Review): 1/6 | Evt/N, Time to Next Anti-Lymphoma Therapy [25]: 29/41 | Median, Time to Next Anti-Lymphoma Therapy [25]: 655 | Evt/N, Time to Next Anti-Lymphoma Therapy [26]: 16/18 | Median, Time to Next Anti-Lymphoma Therapy [26]: 220 | Evt/N, Time to Next Anti-Lymphoma Therapy [27]: 5/6 | Median, Time to Next Anti-Lymphoma Therapy [27]: 228 | Evt/N, Time to Next Anti-Lymphoma Therapy [28]: 57/89 | Median, Time to Next Anti-Lymphoma Therapy [28]: 649 | Evt/N, Time to Next Anti-Lymphoma Therapy [29]: 60/88 | Median, Time to Next Anti-Lymphoma Therapy [29]: 421 | Evt/N, Time to Next Anti-Lymphoma Therapy [30]: 113/177 | Median, Time to Next Anti-Lymphoma Therapy [30]: 533 | Evt/N, Time to Next Anti-Lymphoma Therapy [31]: 103/153 | Median, Time to Next Anti-Lymphoma Therapy [31]: 484 | Evt/N, Time to Next Anti-Lymphoma Therapy [32]: 127/199 | Median, Time to Next Anti-Lymphoma Therapy [32]: 533 | Evt/N, Time to Next Anti-Lymphoma Therapy [33]: 54/79 | Median, Time to Next Anti-Lymphoma Therapy [33]: 546 | Evt/N, Time to Next Anti-Lymphoma Therapy [34]: 7/9 | Median, Time to Next Anti-Lymphoma Therapy [34]: 225 | Evt/N, Time to Next Anti-Lymphoma Therapy [35]: 3/3 | Median, Time to Next Anti-Lymphoma Therapy [35]: 235 | Evt/N, Time to Next Anti-Lymphoma Therapy [36]: 16/21 | Median, Time to Next Anti-Lymphoma Therapy [36]: 232 | Evt/N, Time to Next Anti-Lymphoma Therapy [37]: 19/29 | Median, Time to Next Anti-Lymphoma Therapy [37]: 374 | Evt/N, Time to Next Anti-Lymphoma Therapy [38]: 59/89 | Median, Time to Next Anti-Lymphoma Therapy [38]: 550 | Evt/N, Time to Next Anti-Lymphoma Therapy [39]: 69/117 | Median, Time to Next Anti-Lymphoma Therapy [39]: 593 | Evt/N, Time to Next Anti-Lymphoma Therapy [40]: 57/92 | Median, Time to Next Anti-Lymphoma Therapy [40]: 552 | Evt/N, Time to Next Anti-Lymphoma Therapy [41]: 51/72 | Median, Time to Next Anti-Lymphoma Therapy [41]: 427 | Evt/N, Time to Next Anti-Lymphoma Therapy [42]: 129/204 | Median, Time to Next Anti-Lymphoma Therapy [42]: 505 | Evt/N, Time to Next Anti-Lymphoma Therapy [43]: 113/179 | Median, Time to Next Anti-Lymphoma Therapy [43]: 505 | Evt/N, Time to Next Anti-Lymphoma Therapy [44]: 103/154 | Median, Time to Next Anti-Lymphoma Therapy [44]: 484 | Evt/N, Time to Next Anti-Lymphoma Therapy [45]: 10/11 | Median, Time to Next Anti-Lymphoma Therapy [45]: 261 | Evt/N, Time to Next Anti-Lymphoma Therapy [46]: 13/18 | Median, Time to Next Anti-Lymphoma Therapy [46]: 409 | Evt/N, Time to Next Anti-Lymphoma Therapy [47]: 54/85 | Median, Time to Next Anti-Lymphoma Therapy [47]: 568 | Evt/N, Time to Next Anti-Lymphoma Therapy [48]: 74/129 | Median, Time to Next Anti-Lymphoma Therapy [48]: 537 | Evt/N, Time to Next Anti-Lymphoma Therapy [49]: 109/176 | Median, Time to Next Anti-Lymphoma Therapy [49]: 533 | Evt/N, Time to Next Anti-Lymphoma Therapy (P65 INTENSITY CYTOPLASMIC SIGNAL: ≧2+, ≦65 years old, IRC Review): 101/152

Source: patent US9322066B2, “Predictors for cancer treatment” (priority 2011, dated 2016)
